Assay results taken from ChEMBL document CHEMBL4190235, “Polysubstituted 2-aminoimidazoles as anti-biofilm and antiproliferative agents: Discovery of potent lead” (Eur J Med Chem, 2017).
The source made the active and inactive calls. The calls are words filed in the database; no cut-off is given here.

Tests used:
Pseudomonas aeruginosa [1] = test: Antibiofilm activity against Pseudomonas aeruginosa PA14 after 24 hrs by crystal violet staining based method; assay type: functional
MIA PaCa-2 [2] = test: Cell cycle arrest in human MIAPaCa2 cells assessed as accumulation at G0/G1 phase at IC50 concentration after 48 hrs by propidium iodide staining based flow cytometry (reference value: 66.05 +/- 2.2%); assay type: functional
A-375 [3] = test: Cell cycle arrest in human A375 cells assessed as accumulation at G2/M phase at IC50 concentration after 48 hrs by propidium iodide staining based flow cytometry (reference value: 8.18 +/- 2.2%); assay type: functional
MIA PaCa-2 [4] = test: Antiproliferative activity against human MIAPaCa2 cells assessed as reduction in colony forming ability at IC50 concentration after 10 to 14 days by crystal violet-staining based assay; assay type: functional, cell-based
A-375 [5] = test: Cell cycle arrest in human A375 cells assessed as accumulation at S phase at IC50 concentration after 48 hrs by propidium iodide staining based flow cytometry (reference value: 30.48 +/- 1.4%); assay type: functional
A-375 [6] = test: Antiproliferative activity against human A375 cells assessed as reduction in colony forming ability at IC50 concentration after 10 to 14 days by crystal violet-staining based assay; assay type: functional, cell-based
A-375 [7] = test: Cell cycle arrest in human A375 cells assessed as accumulation at G0/G1 phase at IC50 concentration after 48 hrs by propidium iodide staining based flow cytometry (reference value: 64.18 +/- 2.6%); assay type: functional
Salmonella typhimurium [8] = test: Antibiofilm activity against Salmonella typhimurium ATCC 14028 after 24 hrs by crystal violet staining based method; assay type: functional, Salmonella enterica subsp. enterica serovar Typhimurium
Staphylococcus aureus [9] = test: Antibiofilm activity against Staphylococcus aureus SH1000 after 48 hrs by crystal violet staining based method; assay type: functional
A-375 [10] = test: Cytotoxicity against human A375 cells assessed as reduction in cell viability at IC50 concentration after 24 hrs by calcein AM-dye based assay; assay type: functional
MIA PaCa-2 [11] = test: Cell cycle arrest in human MIAPaCa2 cells assessed as accumulation at subG1 phase at IC50 concentration after 48 hrs by propidium iodide staining based flow cytometry (reference value: 1.53 +/- 0.4%); assay type: functional
MIA PaCa-2 [12] = test: Antiproliferative activity against human MIAPaCa2 cells after 48 hrs by MTT assay; assay type: functional, cell-based; conditions: MIA PaCa-2, 48 h
MIA PaCa-2 [13] = test: Cell cycle arrest in human MIAPaCa2 cells assessed as accumulation at S phase at IC50 concentration after 48 hrs by propidium iodide staining based flow cytometry (reference value: 17.29 +/- 1.8%); assay type: functional
Staphylococcus aureus [14] = test: Inhibition of planktonic growth of Staphylococcus aureus SH1000; assay type: organism-based
Salmonella typhimurium [15] = test: Inhibition of planktonic growth of Salmonella typhimurium ATCC 14028; assay type: organism-based, Salmonella enterica subsp. enterica serovar Typhimurium; conditions: Salmonella enterica
A-375 [16] = test: Antiproliferative activity against human A375 cells after 48 hrs by MTT assay; assay type: functional, cell-based; conditions: A-375, 48 h
A-375 [17] = test: Cell cycle arrest in human A375 cells assessed as accumulation at subG1 phase at IC50 concentration after 48 hrs by propidium iodide staining based flow cytometry (reference value: 1.1 +/- 0.4%); assay type: functional
MIA PaCa-2 [18] = test: Cytotoxicity against human MIAPaCa2 cells assessed as reduction in cell viability at IC50 concentration after 24 hrs by calcein AM-dye based assay; assay type: functional
MIA PaCa-2 [19] = test: Cell cycle arrest in human MIAPaCa2 cells assessed as accumulation at G2/M phase at IC50 concentration after 48 hrs by propidium iodide staining based flow cytometry (reference value: 16.66 +/- 0.8%); assay type: functional
Pseudomonas aeruginosa [20] = test: Inhibition of planktonic growth of Pseudomonas aeruginosa PA14 cells; assay type: organism-based

Work on Cc1ccc(Cc2nc(N)n(CC(=O)Nc3ccc(C)cc3)c2-c2ccccc2Br)cc1 yielded an MBIC50 (Pseudomonas aeruginosa [1]) of 191 µM, an Activity (MIA PaCa-2 [2]) of 36.39% and an Activity (A-375 [3]) of 66.85%. The Activity (MIA PaCa-2 [4]) was “Active”, the Activity (A-375 [5]) was 26.59% and the Activity (A-375 [6]) was “Active”. It also gave an Activity (A-375 [7]) of 36.34%, an MBIC50 (Salmonella typhimurium [8]) of 3.6 µM and an MBIC50 (Staphylococcus aureus [9]) of 5.5 µM. The Activity (A-375 [10]) was “Active”, the Activity (MIA PaCa-2 [11]) was 16.33% and the IC50 (MIA PaCa-2 [12]) was 2.9 µM. The Activity (MIA PaCa-2 [13]) was 17.04%, the IC50 (Staphylococcus aureus [14]) was 5.8 µM and the IC50 (Salmonella typhimurium [15]) was over 400 µM. For the same compound, the IC50 (A-375 [16]) was 1.3 µM, the Activity (A-375 [17]) was 24.71% and the Activity (MIA PaCa-2 [18]) was “Active”. It also gave an Activity (MIA PaCa-2 [19]) of 48.99% and an IC50 (Pseudomonas aeruginosa [20]) of 10.9 µM.
